From patent US7803930B2, “Antisense modulation of apolipoprotein B-expression” (Isis Pharmaceuticals, Inc., priority 2002, dated 2010)

Experiments:
[1] = High fat fed C57BL/6 mice, 6 week timecourse: serum AST and ALT levels; format: in vivo, mouse; conditions: daily oral dose of 20 mg/kg
Description: Male C57BL/6 mice (n=8) receiving a high fat diet (60% kcal fat) were evaluated over the course of 6 weeks for the effects of ISIS 147764 on liver enzyme (AST and ALT) levels. Increased levels of the liver enzymes ALT and AST indicate toxicity and liver damage. Control animals received saline treatment (50 mg/kg). […] AST and ALT levels were measured at 6 weeks.

[2] = High fat fed C57BL/6 mice, 6 week timecourse: serum cholesterol, triglyceride, lipoprotein and glucose levels; format: in vivo, mouse; conditions: for Percent Inhibition HDL / Percent Inhibition LDL / Percent Inhibition VLDL: 20 mg/kg daily oral, negative = increase
Description: Male C57BL/6 mice (n=8) receiving a high fat diet (60% kcal fat) were evaluated over the course of 6 weeks for the effects of treatment with the antisense oligonucleotide, ISIS 147764. Control animals received saline treatment (50 mg/kg). A subset of animals received a daily oral dose (20 mg/kg) atorvastatin calcium (Lipitor®, Pfizer Inc.). All mice, except atorvastatin-treated animals, were dosed intraperitoneally every three days (twice a week), after fasting overnight, with 5, 25, 50 mg/kg ISIS 147764 (SEQ ID No: 109) or saline (50 mg/kg) for six weeks. Serum cholesterol and lipoproteins were analyzed at 0, 2 and 6 week interim timepoints. At study termination, animals were sacrificed 48 hours after the final injections and evaluated for levels of target mRNA levels in liver, cholesterol, lipoprotein, triglyceride, liver enzyme (AST and ALT) and serum glucose levels as well as body, liver, spleen and fat pad weights.
Male C57BL/6 mice (n=8) receiving a high fat diet (60% kcal fat) were evaluated over the course of 6 weeks for the effects of ISIS 147764 on serum cholesterol and triglyceride levels. Control animals received saline treatment (50 mg/kg). Mice were dosed intraperitoneally every three days (twice a week), after fasting overnight, with 5, 25, 50 mg/kg ISIS 147764 (SEQ ID No: 109) or saline (50 mg/kg) for six weeks.
Values in the table are expressed as percent inhibition and are normalized to the saline control.
In addition to serum cholesterol, at study termination, animals were sacrificed 48 hours after the final injections and evaluated for triglyceride levels.
Male C57BL/6 mice (n=8) receiving a high fat diet (60% kcal fat) were evaluated over the course of 6 weeks for the effects of ISIS 147764 on lipoprotein (VLDL, LDL and HDL) levels. Control animals received saline treatment (50 mg/kg). Mice were dosed intraperitoneally every three days (twice a week), after fasting overnight, with 5, 25, 50 mg/kg ISIS 147764 (SEQ ID No: 109) or saline (50 mg/kg) for six weeks.
Values in the table are expressed as percent inhibition and are normalized to the saline control. Negative values indicate an observed increase in lipoprotein levels.
Male C57BL/6 mice (n=8) receiving a high fat diet (60% kcal fat) were evaluated over the course of 6 weeks for the effects of ISIS 147764 on serum glucose levels. Control animals received saline treatment (50 mg/kg). Mice were dosed intraperitoneally every three days (twice a week), after fasting overnight, with 5, 25, 50 mg/kg ISIS 147764 (SEQ ID No: 109) or saline (50 mg/kg) for six weeks.
At study termination, animals were sacrificed 48 hours after the final injections and evaluated for serum glucose levels. […] Mice treated with atorvastatin at a daily oral dose of 20 mg/kg had serum glucose levels of 215 mg/dL.

[3] = test system: apolipoprotein B mRNA; assay: LDLr(-/-) mice dose response (Example 44): apolipoprotein B mRNA; format: in vivo, mouse; conditions: 20 mg/kg, six weeks
Description: LDLr(−/−) mice, purchased from Taconic (Germantown, N.Y.) were used to evaluate antisense oligonucleotides for their potential to lower apolipoprotein B mRNA or protein levels, as well as phenotypic endpoints associated with apolipoprotein B. LDLr(−/−) mice were separated into groups of males and females. LDLr(−/−) mice were dosed intraperitoneally twice a week for six weeks with either 10, 25, or 50 mg/kg of ISIS 147764 (SEQ ID NO: 109) or ISIS 270906 (SEQ ID NO: 856) which is a 4 base mismatch of ISIS 147764, or with saline, or 20 mg/kg of Atorvastatin. At study termination animals were sacrificed and evaluated for several phenotypic markers.

[4] = format: in vivo, mouse
Description: (§1) Female ApoE knockout mice ranged in age from 5 to 7 weeks and were placed on a normal diet for 2 weeks before study initiation. ApoE knockout mice were then fed ad libitum a 60% fat diet, with 0.15% added cholesterol to induce dyslipidemia and obesity. Control animals were maintained on a high-fat diet with no added cholesterol. […]
(§2) At study termination and forty eight hours after the final injections, animals were sacrificed and evaluated for target mRNA levels in liver by RT-PCR methods verified by Northern Blot analysis, glucose levels, cholesterol and lipid levels by HPLC separation methods and triglyceride and liver enzyme levels (performed by LabCorp Preclinical Services; San Diego, Calif.).
(§3) Data are normalized to saline controls.

[5] = High fat fed C57BL/6 mice, 6 week timecourse: body, spleen, liver and fat pad weight; format: in vivo, mouse; conditions: 20 mg/kg daily, six weeks, vs saline-treated controls
Description: Male C57BL/6 mice (n=8) receiving a high fat diet (60% kcal fat) were evaluated over the course of 6 weeks for the effects of ISIS 147764 on body, spleen, liver and fat pad weight. Control animals received saline treatment (50 mg/kg). […]
At study termination, animals were sacrificed 48 hours after the final injections and body, spleen, liver and fat pad weights were measured. Values are expressed as percent change in body weight or ogan weight compared to the saline-treated control animals. Negative values indicated a decrease in weight.

[6] = test system: apolipoprotein B mRNA; assay: ApoE knockout mice (Example 28): target mRNA levels in liver; format: in vivo, mouse; conditions: high fat diet, 20 mg/kg daily
Description: as §1, §2, §3

[7] = test system: apolipoprotein B mRNA; assay: ob/ob mice (Example 50): apolipoprotein B mRNA levels in liver; format: in vivo, mouse; conditions: liver, high fat high cholesterol diet, 50 mg/kg i.p. twice a week, six weeks
Description: (§4) Ob/ob mice receiving a high fat, high cholesterol diet (60% kcal fat supplemented with 0.15% cholesterol) were treated with one of several oligonucleotides to evaluate their effect on apolipoprotein B-related phenotypic endpoints in ob/ob mice. After overnight fasting, mice from each group were dosed intraperitoneally twice a week with 50 mg/kg of ISIS 147483 (SEQ ID NO: 79), or 147764 (SEQ ID NO: 109), or the controls ISIS 116847 (SEQ ID NO: 857), or 141923 (SEQ ID NO: 858), or saline for six weeks. At study termination and forty eight hours after the final injections, animals were sacrificed and evaluated for target mRNA levels in liver, cholesterol and triglyceride levels, liver enzyme levels, serum glucose levels, and PTEN levels.

[8] = test system: PTEN; assay: ob/ob mice (Example 50): PTEN levels; format: in vivo, mouse; conditions: high fat high cholesterol diet, 50 mg/kg i.p. twice a week, six weeks
Description: as §4

[9] = ob/ob mice (Example 50): cholesterol, lipid, triglyceride, liver enzyme and glucose levels; format: in vivo, mouse; conditions: high fat high cholesterol diet, 50 mg/kg i.p. twice a week, six weeks
Description: as §4

[10] = test system: mouse apolipoprotein B mRNA; assay: Inhibition of mouse apolipoprotein B mRNA levels in primary mouse hepatocytes, real-time PCR; format: cell-based
Description: Primary mouse hepatocytes were prepared from CD-1 mice purchased from Charles River Labs (Wilmington, Mass.) and were routinely cultured in Hepatoyte Attachment Media (Gibco) supplemented with 10% Fetal Bovine Serum (Gibco/Life Technologies, Gaithersburg, Md.), 250 nM dexamethasone (Sigma), and 10 nM bovine insulin (Sigma). Cells were seeded into 96-well plates (Falcon-Primaria #3872) at a density of 10000 cells/well for use in RT-PCR analysis.
When cells reached 80% confluency, they were treated with oligonucleotide. For cells grown in 96-well plates, wells were washed once with 200 μL OPTI-MEM™-1 reduced-serum medium (Gibco BRL) and then treated with 130 μL of OPTI-MEM™-1 containing 3.75 μg/mL LIPOFECTIN™ (Gibco BRL) and the desired concentration of oligonucleotide. After 4-7 hours of treatment, the medium was replaced with fresh medium. Cells were harvested 16-24 hours after oligonucleotide treatment.
Quantitation of apolipoprotein B mRNA levels was determined by real-time quantitative PCR using the ABI PRISM™ 7700 Sequence Detection System (PE-Applied Biosystems, Foster City, Calif.) according to manufacturer's instructions. This is a closed-tube, non-gel-based, fluorescence detection system which allows high-throughput quantitation of polymerase chain reaction (PCR) products in real-time. As opposed to standard PCR, in which amplification products are quantitated after the PCR is completed, products in real-time quantitative PCR are quantitated as they accumulate. This is accomplished by including in the PCR reaction an oligonucleotide probe that anneals specifically between the forward and reverse PCR primers, and contains two fluorescent dyes. A reporter dye (e.g., JOE, FAM, or VIC, obtained from either Operon Technologies Inc., Alameda, Calif. or PE-Applied Biosystems, Foster City, Calif.) is attached to the 5′ end of the probe and a quencher dye (e.g., TAMRA, obtained from either Operon Technologies Inc., Alameda, Calif. or PE-Applied Biosystems, Foster City, Calif.) is attached to the 3′ end of the probe. When the probe and dyes are intact, reporter dye emission is quenched by the proximity of the 3′ quencher dye. During amplification, annealing of the probe to the target sequence creates a substrate that can be cleaved by the 5′-exonuclease activity of Taq polymerase. […] With each cycle, additional reporter dye molecules are cleaved from their respective probes, and the fluorescence intensity is monitored at regular intervals by laser optics built into the ABI PRISM™ 7700 Sequence Detection System. In each assay, a series of parallel reactions containing serial dilutions of mRNA from untreated control samples generates a standard curve that is used to quantitate the percent inhibition after antisense oligonucleotide treatment of test samples.
Probes and primers to mouse apolipoprotein B were designed to hybridize to a mouse apolipoprotein B sequence, using published sequence information (GenBank accession number M35186, incorporated herein as SEQ ID NO: 10). For mouse apolipoprotein B the PCR primers were: forward primer: CGTGGGCTCCAGCATTCTA (SEQ ID NO: 11) reverse primer: […] (SEQ ID NO: 12) and the PCR probe was: FAM-[…]-TAMRA SEQ ID NO: 13) where FAM (PE-Applied Biosystems, Foster City, Calif.) is the fluorescent reporter dye) and TAMRA (PE-Applied Biosystems, Foster City, Calif.) is the quencher dye. For mouse GAPDH the PCR primers were: forward primer: […] (SEQ ID NO: 14) reverse primer: […] (SEQ ID NO:15) and the PCR probe was: 5′ JOE-[…]-TAMRA 3′ (SEQ ID NO: 16) where JOE (PE-Applied Biosystems, Foster City, Calif.) is the fluorescent reporter dye) and TAMRA (PE-Applied Biosystems, Foster City, Calif.) is the quencher dye.
In accordance with the present invention, a series of oligonucleotides was designed to target different regions of the mouse apolipoprotein B RNA, using published sequence (GenBank accession number M35186, incorporated herein as SEQ ID NO: 10). […]

[11] = ApoE knockout mice, high fat diet, 20 mg/kg daily

CC(C)c1c(C(=O)Nc2ccccc2)c(-c2ccccc2)c(-c2ccc(F)cc2)n1CC[C@@H](O)C[C@@H](O)CC(=O)O [atorvastatin, atorvastatin calcium, reference compound]
AST levels [1]: 85 IU/L
AST levels (printed in the ALT paragraph) [1]: 40 IU/L
Percent Inhibition HDL ([2]; 0 weeks): 0%
Percent Inhibition LDL ([2]; 0 weeks): 0%
Percent Inhibition VLDL ([2]; 0 weeks): 0%
Percent Inhibition HDL ([2]; 2 weeks): 15%
Percent Inhibition LDL ([2]; 2 weeks): 10%
Percent Inhibition VLDL ([2]; 2 weeks): 15%
Percent Inhibition HDL ([2]; 6 weeks): 20%
Percent Inhibition LDL ([2]; 6 weeks): −10%
Percent Inhibition VLDL ([2]; 6 weeks): −5%
serum glucose levels ([2]; daily oral dose of 20 mg/kg): 215 mg/dL
decrease in serum cholesterol ([2]; oral dose of 20 mg/kg, study termination): 20%
apolipoprotein B mRNA % control ([3]; female LDLr(-/-) mice): 109.0 % control
apolipoprotein B mRNA % control ([3]; male LDLr(-/-) mice): 110.9 % control
Cholesterol Levels [4, 11]: 938 mg/dL
Glucose Levels [4, 11]: 162 mg/dL
Lipoprotein Levels HDL [4, 11]: 42 mg/dL
Lipoprotein Levels LDL [4, 11]: 250 mg/dL
Lipoprotein Levels VLDL [4, 11]: 653 mg/dL
Liver Enzyme Levels ALT ([4]; mouse, in vivo, 20 mg/kg): 76 IU/L
Liver Enzyme Levels AST ([4]; mouse, in vivo, 20 mg/kg): 75 IU/L
Percent Change Fat (fat pad weight) [5]: 7%
Percent Change Liver weight [5]: 15%
Percent Change Spleen weight [5]: 10%
Percent Change Total Body Wt. [5]: 1%
mRNA Percent Inhibition [6]: 10%

116847 (antisense CTGCTAGCCTCTGGATTTGA; listed as DNA, chemistry not given here) [compound 116847]
mRNA % control ApoB [7]: 77.0 % control
mRNA % control PTEN [8]: 20.0 % control
Glucose [9]: 135.5 mg/dL
Lipoproteins CHOL [9]: 287.5 mg/dL
Lipoproteins TRIG [9]: 196.5 mg/dL
Liver Enzymes ALT [9]: 607.5 IU/L
Liver Enzymes AST [9]: 343.2 IU/L

147483 (ATGTCAATGCCACATGTCCA; phosphorothioate, 2'-MOE wings, chemistry not fully specified) [compound 147483]
mRNA % control ApoB [7]: 25.2 % control
mRNA % control PTEN [8]: 143.2 % control
Percent Inhibition 50 nM ([10]; Table 4, 50 nM): 56%
Percent Inhibition 150 nM ([10]; Table 4, 150 nM): 88%
Percent Inhibition 300 nM ([10]; Table 4, 300 nM): 89%
Glucose [9]: 213.2 mg/dL
Lipoproteins CHOL [9]: 250.0 mg/dL
Lipoproteins TRIG [9]: 99.8 mg/dL
Liver Enzymes ALT [9]: 941.7 IU/L
Liver Enzymes AST [9]: 790.2 IU/L
